Measured values published in PubChem BioAssay AID1259407 (Chemical Carcinogenesis Research Information System (CCRIS), 2018).
Active and inactive are the calls of the source. How the calls were made is not given here.

Tested on: CCRIS mutagenicity, Ames/micronucleus/aberration tests
Assay: CCRIS mutagenicity studies

Measured: mutagenic call

C[Si](C)(C)Cl
inactive: Test System: AMES SALMONELLA TYPHIMURIUM, Strain/Indicator: TA98, Metabolic Activation: HAMSTER, LIVER, S-9, AROCLOR 1254, Method: PREINCUBATION inactive; negative | Test System: AMES SALMONELLA TYPHIMURIUM, Strain/Indicator: TA98, Metabolic Activation: NONE, Method: PREINCUBATION inactive; negative | Test System: AMES SALMONELLA TYPHIMURIUM, Strain/Indicator: TA98, Metabolic Activation: NONE, Method: STANDARD PLATE inactive; negative | Test System: AMES SALMONELLA TYPHIMURIUM, Strain/Indicator: TA98, Metabolic Activation: RAT LIVER S-9, AROCLOR 1254, Method: STANDARD PLATE inactive; negative | Test System: AMES SALMONELLA TYPHIMURIUM, Strain/Indicator: TA98, Metabolic Activation: RAT, LIVER, S-9, AROCLOR 1254, Method: PREINCUBATION inactive; negative | Test System: AMES SALMONELLA TYPHIMURIUM, Strain/Indicator: TA100, Metabolic Activation: HAMSTER, LIVER, S-9, AROCLOR 1254, Method: PREINCUBATION inactive; negative | Test System: AMES SALMONELLA TYPHIMURIUM, Strain/Indicator: TA100, Metabolic Activation: NONE, Method: PREINCUBATION inactive; negative | Test System: AMES SALMONELLA TYPHIMURIUM, Strain/Indicator: TA100, Metabolic Activation: NONE, Method: STANDARD PLATE inactive; negative | Test System: AMES SALMONELLA TYPHIMURIUM, Strain/Indicator: TA100, Metabolic Activation: RAT LIVER S-9, AROCLOR 1254, Method: STANDARD PLATE inactive; negative | Test System: AMES SALMONELLA TYPHIMURIUM, Strain/Indicator: TA100, Metabolic Activation: RAT, LIVER, S-9, AROCLOR 1254, Method: PREINCUBATION inactive; negative | Test System: AMES SALMONELLA TYPHIMURIUM, Strain/Indicator: TA1535, Metabolic Activation: HAMSTER, LIVER, S-9, AROCLOR 1254, Method: PREINCUBATION inactive; negative | Test System: AMES SALMONELLA TYPHIMURIUM, Strain/Indicator: TA1535, Metabolic Activation: NONE, Method: PREINCUBATION inactive; negative | Test System: AMES SALMONELLA TYPHIMURIUM, Strain/Indicator: TA1535, Metabolic Activation: NONE, Method: STANDARD PLATE inactive; negative | Test System: AMES SALMONELLA TYPHIMURIUM, Strain/Indicator: TA1535, Metabolic Activation: RAT LIVER S-9, AROCLOR 1254, Method: STANDARD PLATE inactive; negative | Test System: AMES SALMONELLA TYPHIMURIUM, Strain/Indicator: TA1535, Metabolic Activation: RAT, LIVER, S-9, AROCLOR 1254, Method: PREINCUBATION inactive; negative | Test System: AMES SALMONELLA TYPHIMURIUM, Strain/Indicator: TA1537, Metabolic Activation: HAMSTER, LIVER, S-9, AROCLOR 1254, Method: PREINCUBATION inactive; negative | Test System: AMES SALMONELLA TYPHIMURIUM, Strain/Indicator: TA1537, Metabolic Activation: NONE, Method: PREINCUBATION inactive; negative | Test System: AMES SALMONELLA TYPHIMURIUM, Strain/Indicator: TA1537, Metabolic Activation: NONE, Method: STANDARD PLATE inactive; negative | Test System: AMES SALMONELLA TYPHIMURIUM, Strain/Indicator: TA1537, Metabolic Activation: RAT LIVER S-9, AROCLOR 1254, Method: STANDARD PLATE inactive; negative | Test System: AMES SALMONELLA TYPHIMURIUM, Strain/Indicator: TA1537, Metabolic Activation: RAT, LIVER, S-9, AROCLOR 1254, Method: PREINCUBATION inactive; negative | Test System: AMES SALMONELLA TYPHIMURIUM, Strain/Indicator: TA1538, Metabolic Activation: HAMSTER, LIVER, S-9, AROCLOR 1254, Method: PREINCUBATION inactive; negative | Test System: AMES SALMONELLA TYPHIMURIUM, Strain/Indicator: TA1538, Metabolic Activation: NONE, Method: PREINCUBATION inactive; negative | Test System: AMES SALMONELLA TYPHIMURIUM, Strain/Indicator: TA1538, Metabolic Activation: NONE, Method: STANDARD PLATE inactive; negative | Test System: AMES SALMONELLA TYPHIMURIUM, Strain/Indicator: TA1538, Metabolic Activation: RAT LIVER S-9, AROCLOR 1254, Method: STANDARD PLATE inactive; negative | Test System: AMES SALMONELLA TYPHIMURIUM, Strain/Indicator: TA1538, Metabolic Activation: RAT, LIVER, S-9, AROCLOR 1254, Method: PREINCUBATION inactive; negative | Test System: E. COLI, Strain/Indicator: P3078 POLA, Metabolic Activation: NONE, Method: SPOT TEST inactive; negative | Test System: E. COLI, Strain/Indicator: P3078 POLA, Metabolic Activation: RAT LIVER S-9, AROCLOR 1254, Method: SPOT TEST inactive; negative | Test System: E. COLI, Strain/Indicator: W3110, Metabolic Activation: NONE, Method: SPOT TEST inactive; negative | Test System: E. COLI, Strain/Indicator: W3110, Metabolic Activation: RAT LIVER S-9, AROCLOR 1254, Method: SPOT TEST inactive; negative | Test System: MOUSE LYMPHOMA, Strain/Indicator: L5178Y (TK+/TK-), Metabolic Activation: RAT, LIVER, S-9, AROCLOR 1254, Method: SUSPENSION/PLATE inactive; negative. reevaluation of results: negative | Test System: MOUSE LYMPHOMA, Strain/Indicator: L5178Y (TK+/TK-), Metabolic Activation: RAT, LIVER, S-9, Method: SUSPENSION/PLATE inactive; negative
